Where “and” joins values, the source holds several entries; their conditions need not be identical. Identical values can stand only once.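 Step 1: Grow cells in 96-well plates. Step 2: Expose to compound for 48 hours at 5 concentrations. Step 3: Interpolate endpoints linearly; if unreached, use highest concentration. Abbreviation: GI50, concentration required for 50% inhibition of growth. At the TGI there is no net growth.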
Legend:
Test in all cases: NCI anticancer screen, dose series, 48 h
BT-549 breast = test system: BT-549 breast
EKVX NSCLC = test system: EKVX NSCLC
HCT-116 colon = test system: HCT-116 colon
HL-60(TB) leukemia = test system: HL-60(TB) leukemia
K-562 leukemia = test system: K-562 leukemia
MALME-3M melanoma = test system: MALME-3M melanoma
MDA-MB-231 breast = test system: MDA-MB-231 breast
SR leukemia = test system: SR leukemia
SW-620 colon = test system: SW-620 colon
TK-10 renal = test system: TK-10 renal

Compound | GI50 (BT-549 breast) [µM] | TGI (BT-549 breast) | GI50 (EKVX NSCLC) [µM] | TGI (EKVX NSCLC) | GI50 (HCT-116 colon) [µM] | TGI (HCT-116 colon) | GI50 (HL-60(TB) leukemia) [µM] | TGI (HL-60(TB) leukemia) [µM] | GI50 (K-562 leukemia) [µM] | TGI (K-562 leukemia) | GI50 (MALME-3M melanoma) [µM] | TGI (MALME-3M melanoma) | GI50 (MDA-MB-231 breast) [µM] | TGI (MDA-MB-231 breast) | GI50 (SR leukemia) [µM] | GI50 (SW-620 colon) [µM] | TGI (SW-620 colon) | GI50 (TK-10 renal) [µM] | TGI (TK-10 renal) | TGI (SR leukemia) [µM]
C[C@@H](Oc1cc(-n2cnc3ccc(OC[C@@H](O)CO)cc32)sc1C(N)=O)c1ccccc1Cl | 0.194 | 11.1 µM | 1.75 | > 25 µM | 0.116 | > 25 µM | 0.0684 | 0.869 | 0.0804 | > 25 µM | 7.14 | > 25 µM | 0.416 | > 25 µM | 0.0743 | 0.0633 | > 25 µM | 0.894 | 10.7 µM | 
O=c1c(Cl)cc2nc3ccccc3sc-2c1Cl |  | 24.6 µM |  | 14.9 µM |  | 32.5 µM |  | 38.4 |  | > 100 µM |  | 23.6 µM |  | 21.3 µM |  |  | 34.9 µM |  | 33.1 µM | 30
Cc1ccc(S(=O)(=O)N2CCc3ccc(O)c4c3C2Cc2ccc3c(c2-4)OCO3)cc1 (centres undefined) | 0.822 | 12.5 µM | 4.34 | > 100 µM | 0.451 | 10.6 µM | 0.398 | 5.56 | 0.455 | > 100 µM | 0.775 | 30.4 µM | 1.47 | 9.48 µM | 0.352 | 0.429 | > 42.9 µM | 3.48 | 29.2 µM | 5.98
CC1(C)N=C(N)N=C(N)N1c1cccc(Br)c1 | 8.04 | > 100 µM | 17.4 | > 100 µM | 0.069 | > 100 µM | 0.491 | > 73.8 | 0.0597 | > 100 µM | 33.2 | > 100 µM | > 100 | > 100 µM | 0.703 | 0.216 | > 100 µM |  | > 100 µM | > 100
Nc1ccc(Sc2c3ccccc3nc3ccccc23)cc1 |  | 27.4 µM |  | 58.9 µM |  | 26.1 µM |  | 10.7 |  | 22.6 µM |  | 36.2 µM |  | 28.1 µM |  |  | 39 µM |  | 34.2 µM | 32.4
COc1cccc(Nc2nccc(-c3cnn4ncccc34)n2)c1 | 0.0714 | 6.71 µM | 0.0709 |  | 0.0478 | > 11 µM | 0.0553 | 0.163 | 0.115 | > 25 µM | 0.0739 | 0.204 µM | 0.0839 | > 25 µM | 0.0114 | 0.0739 | > 12.3 µM |  |  | 0.0946
CN1CCN(Cc2ccc(NC(=O)c3cncc(C#Cc4cnc(N)c5cnccc45)c3)cc2C(F)(F)F)CC1 | 1.08 | 7.23 µM | 0.485 | 4.4 µM | 0.142 | 1.74 µM | 0.0926 | 0.585 | 0.005 | 0.732 µM | 0.036 | 0.176 µM | 0.0722 | 0.223 µM | 0.229 | 0.182 | 2.62 µM | 0.436 | 6.73 µM | 2.97
C=C1C(=O)O[C@H]2[C@H]1CC/C(COC(=O)NCCCCCCCCNC(=O)OC/C1=C/CC[C@@]3(C)O[C@H]3[C@H]3OC(=O)C(=C)[C@@H]3CC1)=C\CC[C@@]1(C)O[C@@H]21 | 0.257 | 0.748 µM | 1.19 | 2.44 µM | 0.198 | 0.407 µM | 0.268 | 0.869 | 0.349 | 1.37 µM | 0.199 | 0.43 µM | 0.2 | 0.458 µM | 0.317 | 0.239 | 0.686 µM | 0.284 | 0.855 µM | 1.51
C[CH2][Sn]([CH2]C)([O]C(=O)c1ccc(OC)c(OC)c1OC)[O]C(=O)c1ccc(OC)c(OC)c1OC | 17.2 | 31.1 µM | > 100 | > 100 µM | > 100 | > 100 µM | > 63.5 | > 100 | 21.7 | > 74.6 µM | 21.2 | 50.6 µM | 59.1 | > 100 µM | 48 | 36.5 | 69.1 µM | 52.6 | > 68.2 µM | > 100
Cc1ccc(S(=O)(=O)Nc2ccc(-c3cc(-c4cccc(F)c4)c(C#N)c(N)n3)cc2)cc1 | 1.35 | 2.78 µM | 2.17 | 6.32 µM | 1.69 | 3.23 µM | 1.87 | 6.07 | 2.63 | > 100 µM | 1.61 | 3.25 µM | 1.95 | 4.6 µM | 2.7 | 2 | 4.4 µM | 1.66 | 3.17 µM | 10.5
COCc1c(-c2ccc(NC(=O)Nc3cc(C(F)(F)F)ccc3F)c(F)c2)c2c(N)ncnn2c1CN1CCOCC1 | 0.776 | 6.13 µM | 1.71 | 7.62 µM | 1.7 | > 10 µM | 3.46 | > 10 | 1.18 | > 10 µM | 2.72 | > 10 µM | 1.91 | > 10 µM | 0.398 | 2.58 | > 10 µM | 1.29 | 7.53 µM | 3.9
COC1=CC(=O)c2nc(Cl)ccc2C1=O | 2.54 | 6.42 µM | 1.78 | 3.53 µM | 1.75 | 3.24 µM | 2.01 | 7.61 | 2.98 | > 100 µM | 1.72 | 3.38 µM | 1.84 | 6.44 µM | 3.17 | 1.79 | 3.3 µM | 2.09 | 4.23 µM | > 100
COc1ccc2c(c1OC(C)=O)C1=CC(=O)CCC13CCNC3C2 (centres undefined) |  | > 100 µM |  | > 100 µM |  | > 100 µM |  | > 100 |  | > 100 µM |  | > 100 µM |  | > 100 µM |  |  | > 100 µM |  | > 100 µM | > 100
COc1cc2c(cc1C)NC(=O)/C2=C\c1c[nH]c2ccccc12 | 17.4 | 36.3 µM | 10.9 | 29.7 µM | 21.1 | 90.1 µM | 15.9 | 45.5 | 8.07 | 51.5 µM | 15.3 | 42.3 µM | 4.3 | 21.5 µM | 8.91 | 20.3 | 53.3 µM | 14.1 | 46.5 µM | 42.6
CCCN1CCC(c2ccc(Nc3nc(Nc4cc(F)ccc4C(N)=O)c4cc[nH]c4n3)c(OC)c2)CC1 | 4.16 | 8.19 µM | 0.725 | 8.18 µM | 0.178 | 3.61 µM | 0.0565 | 5.81 | 0.681 | 2.8 µM | 3.13 | 7.54 µM | 4.04 | 8.82 µM | 0.0131 | 0.099 | 3.04 µM | 1.07 | 6.33 µM | 4.54
COC(=O)[C@]12CC[C@@H](C)[C@H](C)[C@@H]1C1=CC[C@@H]3[C@@]4(C)C(C=O)=C[C@@](C)(COC(=O)/C=C/c5ccccc5)[C@@H]4[C@H](O)C[C@@]3(C)[C@]1(C)CC2 | 6.05 | 63.9 µM | 2.86 | 11.5 µM | 3.06 | 13.7 µM | 2.48 | 5.97 | 3.53 | > 100 µM | 1.99 | 5.14 µM | 4.36 | 27.2 µM | 2.29 | 3.68 | 18.8 µM | 6.74 | 39.3 µM | 6.76
O=[N+]([O-])c1ccc(Sc2ccncn2)c([N+](=O)[O-])c1 | 2.7 | 7.55 µM | 2.39 | 8.3 µM | 0.726 | 2 µM | 0.174 | 0.677 | 0.277 | 1.95 µM | 1.32 | 3.23 µM | 7.79 | 20.8 µM | 0.75 | 0.413 | 1.53 µM | 3.03 | 9.88 µM | 3.53
O=C(O)Cc1cccc2c(=O)c3cccc([N+](=O)[O-])c3oc12 |  | > 100 µM |  | > 100 µM |  | > 100 µM |  | > 100 |  | > 100 µM |  | > 100 µM |  | > 100 µM |  |  | > 100 µM |  | > 100 µM | > 100
COc1cnc2c(c1)C(=O)c1c-2n(CCCN2CCNCC2)c(=O)c2cc([N+](=O)[O-])ccc12 | 1.4 | 9.7 µM | 1.29 | 2.69 µM | 0.096 | 1.78 µM | 0.113 | 1.11 |  |  | 0.655 | 2.24 µM | 1.47 | 3.33 µM | 0.0424 |  |  | 1.11 | 2.39 µM | 1.9
C/C(=N/N=C(N)N)c1ccc(NC(=O)Nc2ccc(/C(C)=N/N=C(N)N)cc2)cc1 | 14.8 | 38.7 µM | 19.2 | 49 µM | 28 | > 100 µM | 7.89 | > 28.4 | 5.84 | > 59.9 µM | 16.5 | 46.9 µM | 20 | 71.2 µM | 15.2 | 48.8 | > 100 µM | 6.2 | 33.8 µM | 30.1
C/C(=N/Nc1nc(C)cc(=O)[nH]1)C(=O)O |  | > 100 µM |  | > 100 µM |  | > 100 µM |  | > 100 |  | > 100 µM |  | > 100 µM |  | > 100 µM |  |  | > 100 µM |  | > 100 µM | > 100
Cc1ccc(OCC2OC(n3cnc4c(Br)nc(Br)nc43)CC2Oc2ccc(C)cc2)cc1 (centres undefined) | 9.96 | 20.6 µM and 34.4 µM | 1.52 | 3.25 µM and 4.15 µM | 5.29 | 14.5 µM and 3.6 µM |  | 21.8 | 1.94 | 3.92 µM and > 23.8 µM | 6.5 | 16.3 µM and 21.6 µM | 1.74 | 5.27 µM and 4.34 µM |  | 3.02 | 10.1 µM and 12.3 µM | 14.4 | 28.4 µM and > 54.3 µM | 4.67
CN(C)c1ccc(N=C2C=CC(=O)c3ccccc32)cc1 | 7.49 | 20.5 µM |  |  | 2.88 | 13.3 µM | 2.15 | 4.52 | 2 | 4.75 µM | 1.6 | 3.75 µM | 0.899 | 12.7 µM | 2.86 | 1.68 | 3.42 µM | 17 | 31 µM | 14.1
CSc1ccc(C(=O)/C=C/c2ccccc2Cl)cc1 | 15.4 | 32.9 µM | 19.7 | 37 µM | 2.08 | 3.96 µM | 19.5 | 90.3 | 18.8 | 58.3 µM |  |  | 13.3 | 31.2 µM | 2.23 | 4.95 | 28.7 µM | 18.4 | 41.5 µM | 22.4
CCCCCC[C@H](C)NC(=O)c1ccc(Nc2nc3ccccc3c3occc23)cc1 | 2.79 | 6.54 µM | 2.2 | 5.42 µM | 2.14 | 6.43 µM | 4.47 | 48.9 | 8.72 | > 100 µM |  |  | 12.6 | 51.8 µM | 6.65 | 3.57 | > 100 µM | 5.26 | 33.5 µM | 55.5
Cc1cc(Cl)cc(Cc2cc(Cl)cc(C)c2O)c1O | 2.46 | 7.02 µM | 3.62 | 68.8 µM | 2.13 | 5.54 µM | 2.94 | 8.09 | 3.08 | 12.1 µM | 2.35 | 6.86 µM | 2.46 | 8.22 µM | 2.58 |  |  | 3.97 | 12 µM | 10.8
CCN(Cc1ccc(F)cc1)c1ccc(CO)c(OC)c1 | 7.7 | 32.7 µM |  |  | 10 | 28.2 µM | 16 | 46.4 | 20 | > 92 µM | 3.21 | 14.3 µM | 23.1 | > 88.5 µM | 19.5 | 21.1 | > 100 µM | 2.14 | 16.8 µM | 55.7
